Source: US20220387393A1, “METHODS FOR THE TREATMENT OF DYSMYELINATING/DEMYELINATING DISEASES” (Board of Regents, The University of Texas System, priority 2019, published 2022)

Key:
[1] = tested on: corpus callosum (CC) myelin of mouse brains; format: in vivo; conditions: for delayed-onset demyelination and myelin lipid reduction in the CC: 6 months, but not 4 months, after chemotherapy cessation
Text: (§1) FIGS. 4A-4C. […] (FIG. 4A) Quantitative FluoroMyelin staining of the corpus callosum (CC) in 4-month and 6-month mouse brains treated with 5-FU, saline and/or KD3010. (FIG. 4B) Quantitative immunofluorescent staining of oligodendrocyte lineage marker Olig2 in the CC of 6-month mouse brains treated with 5-FU or saline.

[2] = tested on: corpus callosum (CC) myelin of mouse brains; conditions: 6 months after a clinically relevant dose for 1 week; cited from earlier work
[3] = tested on: demyelination induced by 5-FU; experiment: 5-FU (chemotherapy)-induced demyelination in mice, treatment with agonist; format: in vivo; conditions: FluoroMyelin staining of corpus callosum, mouse brains treated with 5-FU
Text: as §1

Qk-iCKO mice = experiment: Qki depletion-induced demyelination in Qk-iCKO mice, daily oral administration; format: in vivo; conditions: for Qk-iCKO mice that lived for more than 100 days: 3 of 13 treated Qk-iCKO mice; for maximum survival duration increased / clinical scores / onset of neurological deficits / prolonged median survival times / body weights: Qk-iCKO mice; for maximum survival duration increased: compared to controls; for clinical scores / onset of neurological deficits / prolonged median survival times / body weights: oral administration, compared to vehicle; for body weights: 4 weeks after tamoxifen injection; for higher myelin lipid levels (FluoroMyelin) than vehicle-treated Qk-iCKO mice: corpus callosum; for higher myelin lipid levels (FluoroMyelin) than vehicle-treated Qk-iCKO mice / myelin sheaths (g-ratio) / more myelinated axons than vehicle-treated Qk-iCKO mice: after 5 weeks of treatment; for myelin sheaths (g-ratio) / more myelinated axons than vehicle-treated Qk-iCKO mice: optic nerves; for myelin sheaths (g-ratio): versus vehicle; for more myelinated axons than vehicle-treated Qk-iCKO mice: electron micrographs
Text: FIGS. 2A-2J. […] In FIG. 2A, the four groups within each week represent, from left to right, Ctrl (Veh), iCKO (Veh), Ctrl (KD3010), and iCKO (KD3010). In FIG. 2D, the four groups within each week represent, from left to right, Ctrl (Veh), iCKO (Veh), Ctrl (Bex), and iCKO (Bex). In FIGS. 2B and 2E, the two lines that reach the X-axis represent the iCKO populations. (FIGS. 2C and 2F) Body weights of Qk-iCKO mice and controls receiving daily oral administration of KD3010, Bex, or Veh for 4 weeks after tamoxifen injection. (FIGS. 2G and 2H) Representative electron micrographs and quantification of the percentage of myelinated axons and g-ratio of the optic nerves of the experimental mice after 5 weeks of treatment. Scale bars, 500 nm. (FIGS. 2I and 2J) Representative images and quantification of FluoroMyelin level in the corpus callosum tissues of experimental mice after 5 weeks of treatment. Scale bars, 50 μm. Data are mean±s.d.; one-way ANOVA with Fisher's LSD correction. *P<0.05; **P<0.01; ***P<0.001; ****P<0.0001. ns, not significant.
Therefore, whether PPARβ-RXRα agonists could alleviate lipid defect-induced demyelination and its related symptoms was tested.

[4] = Dickey et al., 2016; cited from earlier work

Row | Compound | delayed-onset demyelination and myelin lipid reduction in the CC [1] | Qk-iCKO mice that lived for more than 100 days (Qk-iCKO mice) | maximum survival duration increased (Qk-iCKO mice) | clinical scores (Qk-iCKO mice) | onset of neurological deficits (Qk-iCKO mice) | prolonged median survival times (Qk-iCKO mice) | body weights (Qk-iCKO mice) | higher myelin lipid levels (FluoroMyelin) than vehicle-treated Qk-iCKO mice (Qk-iCKO mice) | myelin sheaths (g-ratio) (Qk-iCKO mice) | more myelinated axons than vehicle-treated Qk-iCKO mice (Qk-iCKO mice) | further results
1 | O=c1[nH]cc(F)c(=O)[nH]1 [5-FU, 5-fluorouracil] | exhibited delayed-onset demyelination and myelin lipid reduction |  |  |  |  |  |  |  |  |  | changes in myelin protein levels and oligodendrocyte numbers ([1]; CC of 6-month mouse brains): minimal changes; Qki in the oligodendrocytes in the lesions ([1]; Olig2/Qki double staining, CC of 6-month mouse brains): greatly reduced; delayed-onset demyelination (Han et al., 2008) [2]: developed delayed-onset demyelination
2 | C[C@@H]1CN(c2ccc(OC(F)(F)F)cc2)C[C@H](C)N1S(=O)(=O)c1cccc2c1C[C@@H](C(=O)O)C2 [KD3010, (S)-4-[cis-2,6-dimethyl-4-(4-trifluoromethoxy-phenyl)piperazine-1-sulfonyl]-indan-2-carboxylic acid] |  | 23.1% | 3.72 fold | lowered | significantly delayed | 2.34 fold | increased | 119.4% | thicker | 115.3% | demyelination induced by 5-FU [3]: greatly alleviated; CNS permeability [4]: CNS-permeable
3 | C=C(c1ccc(C(=O)O)cc1)c1cc2c(cc1C)C(C)(C)CCC2(C)C [bexarotene] |  | 23.1% | 4.03 fold | lowered | significantly delayed | 1.41 fold | increased | 89.5% | thicker | 73.7% | 
4 | COc1cccc2c1C(=O)c1c(O)c3c(c(O)c1C2=O)C[C@@](O)(C(=O)CO)C[C@@H]3O[C@H]1C[C@H](N)[C@H](O)[C@H](C)O1 [doxorubicin] | exhibited delayed-onset demyelination and myelin lipid reduction |  |  |  |  |  |  |  |  |  | 
5 | CN(Cc1cnc2nc(N)nc(N)c2n1)c1ccc(C(=O)N[C@@H](CCC(=O)O)C(=O)O)cc1 [methotrexate] | exhibited delayed-onset demyelination and myelin lipid reduction |  |  |  |  |  |  |  |  |  | 
